Test results from patent publication EP0671924B1, “DIGITALIS-LIKE COMPOUNDS” (YISSUM RESEARCH DEVELOPMENT COMPANY OF THE HEBREW …, priority 1992, dated 1994).

System: digoxin antibody
Type: binding
Procedure: Measurement of digoxin-like immunoreactivity: Radioimmunoassay was performed with digoxin RIA kit obtained from Amersham International (Amersham, Buckinghamshire, England). Assay conditions were as recommended by the manufacturer.
Digoxin radioimmunoassay was performed using commercially available kit. The concentration of the partially purified lens DLC was determined from its ability to inhibit [^3H]-ouabain binding assuming identical affinity to the ouabain receptor as ouabain and MW of 372.

Row | SMILES | Cross reactivity [%] | Digoxin-like immunoreactive material
1 | C[C@@H]1O[C@@H](O[C@H]2C[C@@H](O)[C@]3(CO)[C@H]4[C@H](O)C[C@]5(C)[C@@H](C6=CC(=O)OC6)CC[C@]5(O)[C@@H]4CC[C@]3(O)C2)[C@H](O)[C@H](O)[C@H]1O [Ouabain] | 0.012 | 1.21 ng/mL
2 | C[C@]12CC[C@H](O)C[C@H]1CC[C@@H]1[C@@H]2CC[C@]2(C)[C@@H](c3ccc(=O)oc3)CC[C@]12O [Bufalin] | 0.045 | 4.53 ng/mL
3 | C[C@H]1O[C@@H](O[C@H]2[C@@H](O)C[C@H](O[C@H]3[C@@H](O)C[C@H](O[C@H]4CC[C@@]5(C)[C@H](CC[C@@H]6[C@@H]5C[C@@H](O)[C@]5(C)[C@@H](C7=CC(=O)OC7)CC[C@]65O)C4)O[C@@H]3C)O[C@@H]2C)C[C@H](O)[C@@H]1O [Digoxin] | 100 | 10,000 ng/ml
